According to patent publication EP0672658B1, “Antithrombotic agents” (priority 1994, dated 1995):
Where a name gives a salt, the structure may show the parent alone.

What was measured:
Human Thrombin = Human Thrombin (Homo sapiens, UniProt P00734); test: biochemical; conditions: read-out: Kass Human Thrombin (converted)
Trypsin = molecular target: T1, Trypsin (Bos taurus, UniProt P00760); test: biochemical; parameters: species or system Bovine; conditions: read-out: Kass Trypsin (converted)
T1 sequence (P00760 24-246): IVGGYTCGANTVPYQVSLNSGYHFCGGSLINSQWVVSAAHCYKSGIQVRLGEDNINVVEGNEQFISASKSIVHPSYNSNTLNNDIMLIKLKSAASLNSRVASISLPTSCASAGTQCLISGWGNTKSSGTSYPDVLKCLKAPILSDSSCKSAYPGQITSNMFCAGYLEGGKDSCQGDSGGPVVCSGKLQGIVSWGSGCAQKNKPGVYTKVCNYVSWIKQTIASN
Procedure: By substantially following the procedures described above for human thrombin, and using other human blood coagulation system serine proteases and proteases of the fibrinolytic system with the appropriate chromogenic substrates, identified below, selectivity of the compounds of the present invention with respect to the coagulation factor serine proteases and with respect to the fibrinolytic system serine proteases are evaluated as well as their substantial lack of interference with serine proteases of the fibrinolytic system. Thrombin inhibitors preferably should spare fibrinolysis induced by urokinase, tissue plasminogen activator (t-PA) and streptokinase. This would be important to the therapeutic use of such agents as an adjunct to streptokinase, t-PA or urokinase thrombolytic therapy and to the use of such agents as an endogenous fibrinolysis-sparing (with respect to t-PA and urokinase) antithrombotic agent. In addition to the lack of interference with the amidase activity of the fibrinolytic proteases, such fibrinolytic system sparing can be studied by the use of human plasma clots and their lysis by the respective fibrinolytic plasminogen activators.
Human factors X, Xa, IXa, XIa, and XIIa are purchased from Enzyme Research Laboratories, South Bend, Indiana; human urokinase from Leo Pharmaceuticals, Denmark; and recombinant activated Protein C (aPC) is prepared at Eli Lilly and Co. substantially according to U.S. Patent 4,981,952. Chromogenic substrates: N-Benzoyl-Ile-Glu-Gly-Arg-p-nitroanilide (for factor Xa); N-Cbz-D-Arg-Gly-Arg-p-nitroanilide (for factor IXa assay as the factor Xa substrate); Pyroglutamyl-Pro-Arg-p-nitroanilide (for Factor XIa and for aPC); H-D-Pro-Phe-Arg-p-nitroanilide (for factor XIIa); and Pyroglutamyl-Gly-Arg-p-nitroanilide (for urokinase); are purchased from KabiVitrum, Stockholm, Sweden, or from Midwest Biotech, Fishers, Indiana. Bovine trypsin is purchased from Worthington Biochemicals, Freehold, New Jersey, and human plasma kallikrein from Kabi Vitrum, Stockholm, Sweden. Chromogenic substrate H-D-Pro-Phe-Arg-p-nitroanilide for plasma kallikrein is purchased from Kabi Vitrum, Stockholm, Sweden. N-Benzoyl-Phe-Val-Arg-p-nitroanilide, the substrate for human thrombin and for trypsin, is synthesized according to procedures described above for the compounds of the present invention, using known methods of peptide coupling from commercially available reactants or purchased from Midwest Biotech, Fishers, Indiana.

human or animal plasma [1] = test: Anticoagulation determination in plasma: thrombin time (TT); format: biochemical; conditions: concentration doubling thrombin time
Procedure: (§1) Dog plasma and rat plasma is obtained from conscious mixed-breed hounds (either sex, Hazelton-LRE, Kalamazoo, Michigan, U.S.A.) or from anesthetized male Sprague-Dawley rats (Harlan Sprague-Dawley, Inc., Indianapolis, Indiana, U.S.A.) by venipuncture into 3.8 percent citrate. Fibrinogen is prepared from in-date ACD human blood as the fraction I-2 according to previous procedures and specifications. Smith, Biochem. J., 185, 1-11 (1980); and Smith, et al., Biochemistry, 11, 2958-2967 (1972). Human fibrinogen is also purchased as 98 percent pure/plasmin free from American Diagnostica, Greenwich, Connecticut. Coagulation reagents ACTIN, Thromboplastin, and Human plasma are from Baxter Healthcare Corp., Dade Division, Miami, Florida. Bovine thrombin from Parke-Davis (Ann Detroit, Michigan) is used for coagulation assays in plasma.
(§2) Coagulation assay procedures are as previously described. Smith, et al., Thrombosis Research, 50, 163-174 (1988). A CoAScreener coagulation instrument (American LABor, Inc.) is used for all coagulation assay measurements. The prothrombin time (PT) is measured by adding 0.05 mL saline and 0.05 mL Thromboplastin-C reagent to 0.05 mL test plasma. The activated partial thromboplastin time (APTT) is measured by incubation of 0.05 mL test plasma with 0.05 mL Actin reagent for 120 seconds followed by 0.05 mL CaCl2 (0.02 M). The thrombin time (TT) is measured by adding 0.05 mL saline and 0.05 mL thrombin (10 NIH units/mL) to 0.05 mL test plasma. The compounds of Formula I are added to human or animal plasma over a wide range of concentrations to determine prolongation effects on the APTT, PT, and TT assays. Linear extrapolations are performed to estimate the concentrations required to double the clotting time for each assay.

human or animal plasma [2] = test: Anticoagulation determination in plasma: activated partial thromboplastin time (APTT); format: biochemical; conditions: concentration doubling activated partial thromboplastin time
Procedure: as §1, §2

human or animal plasma [3] = test: Anticoagulation determination in plasma: prothrombin time (PT); format: biochemical; conditions: concentration doubling prothrombin time
Procedure: as §1, §2

Kd (Human Thrombin) | Kd (Trypsin) | Compound | Human Plasma Anticoagulation 2x Clotting time (ng/mL) TT (human or animal plasma [1]) | Human Plasma Anticoagulation 2x Clotting time (ng/mL) APTT (human or animal plasma [2]) | Human Plasma Anticoagulation 2x Clotting time (ng/mL) PT (human or animal plasma [3])
2220 nM |  | Nc1ccc(CCNC(=O)[C@@H]2CCCN2C(=O)[C@@H](CC2CCCCC2)NCC(=O)O)cn1 [Example 75, HO2CCH2-D-Cha-Pro-5-NHCH2CH2-2-aminopyridine·HCl] |  |  | 
8.33 nM | 217 nM | N=C(N)c1ccc(CNC(=O)[C@@H]2CCCN2C(=O)[C@@H](CC2CCCCC2)NCC(=O)O)nc1 [Example 66, HO2CCH2-D-Cha-Pro-2-NHCH2-5-amidinopyridine·HCl] | 7.9 ng/mL | 180 ng/mL | 270 ng/mL
90.9 nM |  | N=C(N)C1CCC(CNC(=O)[C@@H]2CCCN2C(=O)[C@@H](CC2CCCCC2)NCC(=O)O)NC1 (stereo partly drawn) [Example 67, HO2CCH2-D-Cha-Pro-2-NHCH2-5-amidinopiperidine·HCl] | 34. ng/mL | 1,800 ng/mL | 1,300 ng/mL
0.588 nM | 11.1 nM | CCS(=O)(=O)N[C@H](CC1CCCCC1)C(=O)N1CCC[C@H]1C(=O)NCc1ccc(C(=N)N)cc1 [Example 80, EtSO2-D-Cha-Pro-4-NHCH2C6H4C(NH)NH2·HCl] | 4 ng/mL | 40 ng/mL | 130 ng/mL
500 nM | 4170 nM | NCC1CCC(CNC(=O)[C@@H]2CCCN2C(=O)[C@@H](CC2CCCCC2)NCC(=O)O)CC1 (stereo partly drawn) [Example 79, HO2CCH2-D-Cha-Pro-4-NHCH2C6H10CH2NH2·HCl] | 140 ng/mL | 1,700 ng/mL | 2,400 ng/mL
2.94 nM | 270 nM | N=C(N)c1ccc(CNC(=O)[C@@H]2CCCN2C(=O)[C@@H](CC2CCCCC2)NCC(=O)O)nn1 [Example 69, HO2CCH2-D-Cha-Pro-3-NHCH2-6-amidinopyridazine·HCl] | 5. ng/mL | 110 ng/mL | 220 ng/mL
417 nM | 33300 nM | CCS(=O)(=O)N[C@H](CC1CCCCC1)C(=O)N1CCC[C@H]1C(=O)NCc1ccnc(N)c1 [Example 83, EtSO2-D-Cha-Pro-4-NHCH2-2-aminopyridine·HCl] | 91 ng/mL | 1,000 ng/mL | 1,300 ng/mL
34.5 nM |  | Nc1ccc(CNC(=O)[C@@H]2CCCN2C(=O)[C@@H](CC2CCCCC2)NCC(=O)O)cn1 [Example 74, HO2CCH2-D-Cha-Pro-5-NHCH2-2-aminopyridine·HCl] | 20 ng/mL | 420 ng/mL | 350 ng/mL
132 nM |  | Nc1ccc(CNC(=O)[C@@H]2CCCN2C(=O)[C@@H](CC2CCCCC2)NCC(=O)O)cc1 [Example 62, HO2CCH2-D-Cha-Pro-4-NHCH2C6H4NH2·HCl] | 54 ng/mL |  | 
7.69 nM | 130 nM | CS(=O)(=O)CC(=O)N[C@H](CC1CCCCC1)C(=O)N1CCC[C@H]1C(=O)NCc1ccc(C(=N)N)cc1 [Example 92, MeSO2CH2CO-D-Cha-Pro-p-NHCH2C6H4C(NH)NH2·HCl] | 8.9 ng/mL | 210 ng/mL | 340 ng/mL
2.33 nM | 102 nM | N=C(N)N1CC=C(CNC(=O)[C@@H]2CCCN2C(=O)[C@@H](CC2CCCCC2)NCC(=O)O)CC1 [Example 70, HO2CCH2-D-Cha-Pro-4-NHCH2-1-amidino-3,4-dehydro-piperidine·HCl] | 2 ng/mL | 160 ng/mL | 180 ng/mL
1.67 nM |  | N=C(N)C1=CNC(CNC(=O)[C@@H]2CCCN2C(=O)[C@@H](CC2CCCCC2)NCC(=O)O)CC1 (stereo partly drawn) [Example 68, HO2CCH2-D-Cha-Pro-2-NHCH2-5-amidino-5,6-dehydro-piperidine·HCl] | 4. ng/mL | 49 ng/mL | 190 ng/mL
90.9 nM |  | Nc1ccc(CNC(=O)[C@@H]2CCCN2C(=O)[C@@H](CC2CCCCC2)NCC(=O)O)cc1F [Example 77, HO2CCH2-D-Cha-Pro-4-NHCH2-2-F-aniline·HCl] | 53 ng/mL | 1,600 ng/mL | 890 ng/mL
200 nM |  | CCS(=O)(=O)N[C@H](CC1CCCCC1)C(=O)N1CCC[C@H]1C(=O)NCc1ccc(N)cc1F [Example 82, EtSO2-D-Cha-Pro-4-NHCH2-3-F-C6H3NH2·HCl] | 130 ng/mL | 3,800 ng/mL | 3,000 ng/mL
3.77 nM | 32.5 nM | N=C(N)c1ccc(CNC(=O)[C@@H]2CCCN2C(=O)[C@@H](CC2CCCCC2)NCCCC(=O)O)cc1 [Example 85, HOOCCH2CH2CH2-D-Cha-Pro-p-NHCH2C6H4C(NH)NH2·HCl] | 4.9 ng/mL | 100 ng/mL | 197 ng/mL
35.7 nM |  | Nc1cc(CNC(=O)[C@@H]2CCCN2C(=O)[C@@H](CC2CCCCC2)NCC(=O)O)ccn1 [Example 73, HO2CCH2-D-Cha-Pro-4-NHCH2-2-aminopyridine·HCl] | 21 ng/mL | 340 ng/mL | 330 ng/mL
189 nM | 476 nM | CCS(=O)(=O)N[C@H](CC1CCCCC1)C(=O)N1CCC[C@H]1C(=O)NCc1ccc(CN)cc1 [Example 81, EtSO2-D-Cha-Pro-4-NHCH2C6H4CH2NH2·HCl] | 110 ng/mL | 1,500 ng/mL | 2,700 ng/mL
 | 1.75 nM | N=C(N)c1ccc(CNC(=O)[C@@H]2CCCN2C(=O)[C@@H](CC2CCCCC2)NCC(=O)O)s1 [Example 65] | 1 ng/mL |  | 
3230 nM |  | Nc1ccc(CCNC(=O)[C@@H]2CCCN2C(=O)[C@@H](CC2CCCCC2)NCC(=O)O)cc1 [Example 63, HO2CCH2-D-Cha-Pro-4-NHCH2CH2C6H4NH2·HCl] | 680 ng/mL |  | 
